Here are results for 7 molecules from patent US8476266B2, “Phenylacetic acid compound” (Ono Pharmaceutical Co., Ltd., priority 2007, dated 2013).

The term IC50 denotes the concentration at which inhibition is half-maximal. By Ki is commonly meant the dissociation constant of the complex between target and ligand, obtained from inhibition or displacement.

For one assay, the target named is T1, Human CYP3A4 (Homo sapiens, UniProt P08684).
T1 construct: purchased BD Gentest
Kind of assay: Measurement of drug-metabolizing enzyme inhibitory activity (human CYP3A4 inhibitory effect), CYP3A4 expression system microsome, 7-BQ substrate. The format is in vitro ADME. As to conditions: 7-benzyloxyquinoline substrate, 37° C., 30 minutes. The procedure:
A solution of the test compound having a concentration five hundred times more than the evaluation concentration in ethanol, or ethanol was 125-fold diluted by water. 50 μL of the test compound solution or the ethanol solution (control) was added with CYP3A4 substrate (7-benzyloxyquinoline (7-BQ), 40 μmol/L), magnesium chloride solution (5 mmol/L), and 100 μL, of 200 mM potassium phosphate buffer solution (pH 7.4) containing CYP3A4 expression system microsome (BD Gentest, 0.25 mg/mL), and preincubated at 37° C. for 10 minutes, then added with 50 μL, of reduced nicotinamide adenine dinucleotide phosphate (NADPH, final concentration 1 mmol/L) and incubated at 37° C. for 30 minutes. Immediately after the addition of NADPH, and after incubation, the fluorescence intensity was measured for 7-hydroxyquinoline which is a metabolite of the substrate (excitation wavelength 409 nm, emission wavelength 530 nm). The inhibition ratio against the control was calculated by the equation below. Inhibition rate(%)=[1-{(fluorescence intensity of the test compound after incubation−fluorescence intensity of the test compound immediately after addition of NADPH)/(fluorescence intensity of control after incubation−fluorescence intensity of control immediately after the addition of NADPH)}]×100.
IC50 was calculated from the equation below. IC50(μmol/L)=(50−(D×A−C×B)/(D−C))/((B−A)/(D−C)) • A: Highest inhibition rate (%) which is less than 50%. • B: Lowest inhibition rate (%) which is more than 50%. • C: Concentration (μmol/L) of the test compound when the inhibition rate is A. • D: Concentration (μmol/L) of the test compound when the inhibition rate is B.

The target in another assay is T2, DP receptor (Homo sapiens, UniProt Q13258).
T2 construct: Blood was collected from the cubital vein of a healthy adult; endogenous in cells; host or cells: human platelets (platelet-rich plasma of a healthy adult donor)
T2 sequence (Q13258 1-359): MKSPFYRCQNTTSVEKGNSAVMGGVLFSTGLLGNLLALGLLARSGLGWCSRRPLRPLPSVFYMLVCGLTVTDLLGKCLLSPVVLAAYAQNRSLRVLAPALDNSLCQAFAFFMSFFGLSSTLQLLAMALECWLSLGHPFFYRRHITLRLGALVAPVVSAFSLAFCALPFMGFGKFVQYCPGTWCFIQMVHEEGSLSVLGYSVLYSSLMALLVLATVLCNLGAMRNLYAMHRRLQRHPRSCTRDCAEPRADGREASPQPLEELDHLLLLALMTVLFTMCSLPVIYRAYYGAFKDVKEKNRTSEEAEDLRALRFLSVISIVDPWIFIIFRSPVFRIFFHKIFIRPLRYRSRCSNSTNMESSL
Briefly: Measurement of DP receptor antagonistic activity using human platelet-rich plasma (PRP); inhibition of PGD2-stimulated cAMP production. As to conditions: for IC50: human PRP, 3 μmol/L PGD2 stimulation; for binding activity against the DP receptor compared with the non-substituted compound (Comparative compound 1): in words. The format is cell-based. The procedure: The collected blood was subjected to centrifugal separation at 100 G, at room temperature for 15 minutes to obtain PRP in the upper layer. EDTA was added to the obtained PRP so that the final concentration thereof to be about 10 mmol/L. The PRP was subjected to centrifugal separation at 1500 G, at room temperature for 15 minutes to obtain supernatant platelet poor plasma (PPP). After the obtained platelet pellets were suspended, the suspension was diluted with PPP so that the platelet density to be adjusted to 5.0×10^5/μL. To the obtained platelet suspension, 3-isobutyl-1-methylxanthine and prostanoid EP3 receptor antagonist were added so that the final concentrations thereof to be 8 mmol/L and 1 μmol/L, respectively.
297 μL of the prepared PRP was dispensed to each test tube, followed by subjecting to incubation at 37° C. for 5 minutes. After adding 1.5 μL of DMSO or a variety of concentrations of the compound of the present invention, 10 minutes of incubation was carried out at 37° C. 1.5 μL, of DMSO or PGD2 (final concentration: 3 μmol/L) was added thereto to initiate the reaction. After 15 minutes of incubation was carried out at 37° C., […] of ice-cooled 10% trichloroacetic acid (TCA) was added thereto to terminate the reaction. The TCA-treated sample was subjected to centrifugal separation at 15,000 G for 3 minutes at 4° C. The concentration of thus obtained supernatant cAMP was measured by enzyme immunoassay using cAMP EIA system (Amersham plc). 300 μL of the supernatant obtained above was mixed with 600 μL, of a solution of 0.5 mol/L tri-n-octylamine in chloroform. After extracting TCA in the organic layer, the cAMP content in the water layer sample was measured according to the method described in cAMP assay kit.
A general note: Changes in cAMP serve as a functional read-out for many G protein-coupled receptors.

The target in assay [1] is T3, prostanoid receptor subtype (human EP2) (Homo sapiens, UniProt P43116).
T3 construct: expressed in transfected cells; host or cells: CHO cells
Briefly: Receptor binding experiment using prostanoid receptor subtype expressing cell (3H-PGE2, CHO cell membrane). As to conditions: 3H-PGE2 2.5 nM, read-out: Ki, EP2 receptor binding (3H-PGE2 binding inhibition). Here is the method: According to the method of Sugimoto et. al. (J. Biol. Chem. 267, 6463-6466 (1992)), CHO cells in which prostanoid receptor subtype (human EP2) was expressed were prepared to obtain membrane preparation.
A reaction solution (200 μl) containing membrane fraction preparation (0.5 mg/ml) and ^3H-PGE2 was incubated at room temperature for one hour. The reaction was terminated by ice-cooled buffer (3 ml), bound ^3H-PGE2 was trapped on a glass filter (GF/B) by suction filtration at reduced pressure, and bound radioactivity was measured by a liquid scintillator.
The Kd value was calculated from Scatchard plots [Ann. N.Y. Acad. Sci. 51, 660 (1949)]. Nonspecific binding was determined as a bond in the presence of excessive amount (10 μM) of unlabeled PGE2. The measurement of ^3H-PGE2 binding inhibitory effect by the compound of the present invention was carried out by adding ^3H-PGE2 (2.5 nM) and the compound of the present invention at a variety of concentrations. Note that all reactions used the following buffer.
Buffer: potassium phosphate (10 mM, pH 6.0), EDTA (1 mM), MgCl2 (10 mM), NaCl (0.1 M).
Dissociation constant (Ki (μM)) of each compound was calculated from the following equation. Ki=IC50/(1+([C]/Kd) • IC50: Concentration of the compound of the present invention required for 50%-inhibition of [3H]PGE2 specific bond • C: Concentration of [3H]PGE2 • Kd: Dissociation constant of [3H]PGE2

Bounds are passed on as bounds.

T3 sequence (P43116 whole entry): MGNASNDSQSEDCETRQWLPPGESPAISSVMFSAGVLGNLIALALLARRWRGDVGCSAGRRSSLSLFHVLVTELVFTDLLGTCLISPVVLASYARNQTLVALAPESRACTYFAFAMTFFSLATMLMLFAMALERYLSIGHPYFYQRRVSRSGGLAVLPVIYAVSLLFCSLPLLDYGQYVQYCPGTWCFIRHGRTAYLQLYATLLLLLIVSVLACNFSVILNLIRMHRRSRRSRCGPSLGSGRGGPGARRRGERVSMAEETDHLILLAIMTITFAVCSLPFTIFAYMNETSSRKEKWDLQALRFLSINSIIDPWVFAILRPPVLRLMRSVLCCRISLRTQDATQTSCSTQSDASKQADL
T1 sequence (P08684 whole entry): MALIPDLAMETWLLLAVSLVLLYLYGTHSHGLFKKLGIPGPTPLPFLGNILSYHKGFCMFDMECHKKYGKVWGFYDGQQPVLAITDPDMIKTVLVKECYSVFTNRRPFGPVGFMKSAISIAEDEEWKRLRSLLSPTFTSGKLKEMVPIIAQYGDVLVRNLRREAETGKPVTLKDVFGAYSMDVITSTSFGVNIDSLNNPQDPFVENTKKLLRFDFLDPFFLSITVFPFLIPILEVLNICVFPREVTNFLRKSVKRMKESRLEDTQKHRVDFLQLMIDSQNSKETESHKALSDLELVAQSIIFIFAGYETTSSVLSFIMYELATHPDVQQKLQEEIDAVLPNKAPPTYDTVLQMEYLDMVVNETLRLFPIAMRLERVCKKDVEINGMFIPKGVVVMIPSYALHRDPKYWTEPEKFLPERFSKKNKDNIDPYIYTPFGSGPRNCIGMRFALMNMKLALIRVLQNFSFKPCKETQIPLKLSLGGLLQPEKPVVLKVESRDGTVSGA

`Cc1cc(OC[C@@H]2CN(C)c3ccccc3O2)cc(C)c1C(=O)Nc1cccc(CC(=O)O)c1` [Comparative compound 1, (3-((2,6-dimethyl-4-(((2S)-4-methyl-3,4-dihydro-2H-1,4-benzoxazin-2-yl)methoxy)benzoyl)amino)phenyl)acetic acid]: the concentration for half-maximal inhibition (IC50) is no less than 30000 nM on Human CYP3A4 and 21 nM on DP receptor. In assay [1], the inhibition constant Ki worked out at 93.6 nM.
For `Cc1ccc(CC(=O)O)cc1NC(=O)c1c(C)cc(OC[C@@H]2CN(C)c3ccccc3O2)cc1C` [Comparative compound 2, (3-((2,6-dimethyl-4-(((2S)-4-methyl-3,4-dihydro-2H-1,4-benzoxazin-2-yl)methoxy)benzoyl)amino)-4-methylphenyl)acetic acid], the IC50 at Human CYP3A4 is less than 3000 nM. In addition, the “binding activity against the DP receptor compared with the non-substituted compound (Comparative compound 1)” value at DP receptor is listed as “more increased binding activity”.
Regarding `Cc1cc(OC[C@@H]2CN(C)c3ccccc3O2)cc(C)c1C(=O)Nc1cc(CC(=O)O)ccc1Cl` [Comparative compound 3, (4-chloro-3-((2,6-dimethyl-4-(((2S)-4-methyl-3,4-dihydro-2H-1,4-benzoxazin-2-yl)methoxy)benzoyl)amino)phenyl)acetic acid], the half-inhibitory concentration (IC50) against Human CYP3A4 was found to be 19700 nM; against DP receptor it was 4 nM. In assay [1], the Ki is 16.8 nM.
For `Cc1cc(OC[C@@H]2CN(C)c3ccccc3O2)cc(C)c1C(=O)Nc1cc(C2(C(=O)O)CC2)ccc1Cl` [Comparative compound 4, 1-(4-chloro-3-((2,6-dimethyl-4-(((2S)-4-methyl-3,4-dihydro-2H-1,4-benzoxazin-2-yl)methoxy)benzoyl)amino)phenyl)cyclopropanecarboxylic acid], the values for the IC50 against Human CYP3A4 and against DP receptor were no less than 30000 nM and 6.5 nM, respectively. Also, on DP receptor, the “binding activity against the DP receptor compared with the non-substituted compound (Comparative compound 1)” value is reported as “more increased binding activity”. Also, in assay [1], the inhibition constant Ki turned out to be 1.8 nM.
`Cc1cc(OC[C@@H]2CN(C)c3ccccc3O2)cc(C)c1C(=O)Nc1cc(C2(C(=O)O)CC2)ccc1C(F)(F)F` [Example 12, 1-(3-((2,6-dimethyl-4-(((2S)-4-methyl-3,4-dihydro-2H-1,4-benzoxazin-2-yl)methoxy)benzoyl)amino)-4-(trifluoromethyl)phenyl)cyclopropanecarboxylic acid]: the values for the 50% inhibitory concentration (IC50) against Human CYP3A4 and against DP receptor were no less than 30000 nM and 7.1 nM, respectively. The Ki in assay [1] came out at 142 nM.
On to `CCc1cc(OC[C@@H]2CN(C)c3ccccc3O2)cc(C)c1C(=O)Nc1cc(C2(C(=O)O)CC2)ccc1C(F)(F)F` [Example 21, 1-(3-((2-ethyl-6-methyl-4-(((2S)-4-methyl-3,4-dihydro-2H-1,4-benzoxazin-2-yl)methoxy)benzoyl)amino)-4-(trifluoromethyl)phenyl)cyclopropanecarboxylic acid], for which the IC50 at Human CYP3A4 is no less than 30000 nM; against DP receptor, 2.9 nM.
`Cc1cc(OC[C@@H]2CN(C)c3ccccc3O2)cc(C)c1C(=O)Nc1cc(CC(=O)O)ccc1C(F)(F)F` [Example 24, (3-((2,6-dimethyl-4-(((2S)-4-methyl-3,4-dihydro-2H-1,4-benzoxazin-2-yl)methoxy)benzoyl)amino)-4-(trifluoromethyl)phenyl)acetic acid]: the IC50 on Human CYP3A4 came out at 8400 nM; against DP receptor, 8.9 nM.
